{"source": "ChEMBL document CHEMBL1145699", "about": "“Bioactive Terpenoids from Octocorallia. 3. A New Eunicellin-Based Diterpenoid from the Soft Coral Cladiella sphaeroides” (J Nat Prod, 1997)", "system": "Artemia salina", "experiment": "Toxicity against Artemia salina at 30 ppm", "format": "organism-based", "conditions": "in vivo; call rule not given here"}
{"smiles": "C=C1CC[C@H](C(C)C)[C@@H]2[C@H]1[C@@H]1CC(=C)[C@@H](O)CC[C@](C)(O)[C@H]2O1", "note": "[CLADIELLISIN]", "values": [{"measurement": "Activity", "result": "Not Active"}]}
